Reference: patent US20070196421A1, “Soft tissue implants and drug combination compositions, and use thereof” (priority 2005, published 2007)

Tests used:
[1] = in vivo; cited from earlier work
[2] = in vivo; cited from earlier work; remark: listed apart in the source
glucocorticoid receptor = glucocorticoid receptor trafficking (mechanism study); assay type: cell-based
[3] = test system: GRE reporter plasmid in T cells; assay: transactivation of a transfected GRE reporter plasmid in T cells; assay type: cell-based
NFAT = NFAT activation, translocation and transactivation; assay type: cell-based
NFkB = NFkB activation; assay type: cell-based
AP1 = AP1 activation; assay type: cell-based
p38 = p38 activation; assay type: cell-based
JNK = JNK activation; assay type: cell-based
ERK = ERK activation; assay type: cell-based
[4] = test system: LPS-induced TNF-α production; assay: acute in vivo model of inflammation (LPS-induced TNF-α release); conditions: agent alone (prednisolone at reduced dose)
joint swelling = assay: chronic in vivo model of inflammation / chronic arthritis model; conditions: agent alone (prednisolone at reduced dose)
[5] = test system: carrageenan-induced paw edema; assay: Rat carrageenan-induced paw edema model: paw swelling; assay type: in vivo; conditions: 2.26 mg/kg, local injection in paw at T-1 hr, Tmax = 6 hrs
Experimental: (§1) A dose-range finding study was performed to determine the anti-inflammatory activity of various ratios of methyl prednisolone acetate and amoxapine in a rat carrageenan-induced paw edema model. […] The molar ratio of methyl prednisolone acetate to amoxapine ranged from 1:1 to 1:300, using total doses of methyl prednisolone acetate of 0.01, 0.03 or 0.1 mg/kg.
(§2) The test agent (a combination of methyl prednisolone acetate and amoxapine), vehicle control, or reference agents (methyl prednisolone acetate, amoxapine, or Depo-Medrol®) were administered in the left hind foot pad of rats. After 60 minutes, paw edema was induced by injection of 100 μl of 1% carrageenan in the same foot pad. The paw volume was measured with a water displacement plethysmometer immediately prior to test agent injection (T−1h), at the time of carrageenan injection (T0h), and at T6h. Animals were euthanized by carbon dioxide inhalation. Paw tissue samples were collected and flash frozen in liquid nitrogen. Samples were assayed for TNF-α by enzyme-linked immunoassay (ELISA).

TNF-α = assay: Rat carrageenan-induced paw edema model: TNF-α in paw tissue by ELISA; assay type: in vivo; conditions: 2.26 mg/kg
Experimental: as §1, §2

[6] = 200 mg/day orally; cited from earlier work
[7] = water; cited from earlier work
mast cells = conditions: cited from earlier work
eosinophil activation = conditions: cited from earlier work
AP-1 = assay: IL-1 induced AP-1 binding activity in chondrocyte lysates (FIG. 1C); assay type: cell-based; conditions: lysates from chondrocytes pretreated with paclitaxel
collagenase = assay: IL-1 induced collagenase RNA levels in chondrocytes (FIG. 1D); assay type: cell-based; conditions: pretreatment
stromelysin = assay: IL-1 induced stromelysin RNA levels in chondrocytes (FIG. 1D); assay type: cell-based; conditions: pretreatment
[8] = test system: AP-1 transcriptional activity; assay: IL-1 stimulated AP-1 transcriptional activity (AP-1 driven CAT reporter gene) in chondrocytes; assay type: cell-based; conditions: transfected chondrocytes, IL-1 50 ng/ml, 24 hours, paclitaxel 10^−7 to 10^−5 M
Experimental: Chondrocytes were transfected with constructs containing an AP-1 driven CAT reporter gene, and stimulated with IL-1, IL-1 (50 ng/ml) was added and incubated for 24 hours in the absence and presence of paclitaxel at various concentrations. […] The data noted with an asterisk (*) have significance compared with IL-1-induced CAT activity according to a t-test, P<0.05. The results shown are representative of three independent experiments.

[9] = test system: AP-1 DNA binding activity; assay: IL-1 induced AP-1 DNA binding activity, gel mobility shift assay of chondrocyte extracts; assay type: cell-based; conditions: chondrocyte lysates, pretreated 10^−7 to 10^−5 M for 24 hours, IL-1β 20 ng/ml
Experimental: Binding activity was assayed with a radiolabeled human AP-1 sequence probe and gel mobility shift assay. Extracts from chondrocytes untreated or treated with various amounts of paclitaxel (10^−7 to 10^−5 M) followed by IL-1β (20 ng/ml) were incubated with excess probe on ice for 30 minutes, followed by non-denaturing gel electrophoresis. The “com” lane contains excess unlabeled AP-1 oligonucleotide. The results shown are representative of three independent experiments.

collagenase (MMP-1) mRNA = assay: IL-1 induced collagenase (MMP-1) mRNA expression in chondrocytes, Northern blot; conditions: 10^−5 M, 24 hours pretreatment, IL-1β 20 ng/ml
stromelysin (MMP-3) mRNA = assay: IL-1 induced stromelysin (MMP-3) mRNA expression in chondrocytes, Northern blot; conditions: 10^−5 M, 24 hours pretreatment, IL-1β 20 ng/ml
[10] = molecular target: protein tyrosine phosphatase 1B (PTP1B) (Homo sapiens, UniProt P18031); conditions: cited from earlier work
Sequence of protein tyrosine phosphatase 1B (PTP1B) (P18031 whole entry): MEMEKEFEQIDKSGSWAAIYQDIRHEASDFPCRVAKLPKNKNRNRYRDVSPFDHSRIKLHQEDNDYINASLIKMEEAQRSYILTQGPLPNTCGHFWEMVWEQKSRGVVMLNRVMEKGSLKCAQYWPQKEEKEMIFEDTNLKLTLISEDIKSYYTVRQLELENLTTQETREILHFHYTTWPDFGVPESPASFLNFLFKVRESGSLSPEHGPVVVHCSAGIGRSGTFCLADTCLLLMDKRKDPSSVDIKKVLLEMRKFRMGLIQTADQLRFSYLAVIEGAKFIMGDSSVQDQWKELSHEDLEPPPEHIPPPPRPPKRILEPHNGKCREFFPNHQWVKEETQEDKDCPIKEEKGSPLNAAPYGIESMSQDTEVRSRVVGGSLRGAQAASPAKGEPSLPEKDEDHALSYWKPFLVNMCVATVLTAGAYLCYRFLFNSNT

[11] = test system: phosphatases of regenerating liver (PRL); conditions: cited from earlier work
endo-exonuclease = conditions: cited from earlier work

CN(C)/N=N/c1[nH]cnc1C(N)=O [Dacarbazine, dacarbazine]
absorption from the GI tract [1]: poorly absorbed

O=C(Nc1ccc([N+](=O)[O-])cc1Cl)c1cc(Cl)ccc1O [Niclosamide, niclosamide]
toxicity in mammals [2]: very low toxicity

Clc1ccc2c(c1)C(N1CCNCC1)=Nc1ccccc1O2 [amoxapine]
glucocorticoid receptor trafficking (glucocorticoid receptor): does not promote
potentiation of prednisolone's ability to transactivate a GRE reporter plasmid [3]: does not potentiate
NFAT activation, translocation and transactivation (NFAT): block
NFkB activation (NFkB): partially inhibits
AP1 activation (AP1): partially inhibits
p38 activation (p38): Inhibition
JNK activation (JNK): Inhibition
ERK activation (ERK): unaffected
effect of the single agents in the acute / LPS model [4]: modest or no benefit
effect of the single agents in the chronic model (joint swelling): modest or no benefit
Edema ± SEM [5]: not significantly different from the vehicle treatment
Edema ± SEM ([5]; listed as Amoxapine): 38.1 ± 3.3%
TNF-α ± SEM (TNF-α): 32.6 ± 10.1 pg/g

CC(=O)N1CCN(c2ccc(OCC3COC(Cn4ccnc4)(c4ccc(Cl)cc4Cl)O3)cc2)CC1 (centres unmarked) [ketoconazole]
serum concentration [6]: about 3.2 micrograms
solubility in water (in words) [7]: essentially insoluble

CCOC(=O)N1CCC(=C2c3ccc(Cl)cc3CCc3cccnc32)CC1 [loratadine, Loratadine]
inhibition of mast cells (mast cells): inhibits
inhibition of eosinophil activation (eosinophil activation): inhibits

CC(=O)O[C@H]1C(=O)[C@@]2(C)[C@H]([C@H](OC(=O)c3ccccc3)[C@]3(O)C[C@H](OC(=O)[C@H](O)[C@@H](NC(=O)c4ccccc4)c4ccccc4)C(C)=C1C3(C)C)[C@]1(OC(C)=O)CO[C@@H]1C[C@@H]2O [paclitaxel]
IL-1 induced binding activity (AP-1): decreased
IL-1 induction of collagenase RNA levels (collagenase): can be inhibited
IL-1 induction of stromelysin RNA levels (stromelysin): can be inhibited
IL-1 induced AP-1 reporter gene CAT activity [8]: reduced IL-1 induced AP-1 reporter gene CAT activity
IL-1 induced AP-1 binding activity [9]: decreased
collagenase mRNA level (collagenase (MMP-1) mRNA): complete inhibition
stromelysin mRNA level (stromelysin (MMP-3) mRNA): complete inhibition

N=C(N)c1ccc(OCCCCCOc2ccc(C(=N)N)cc2)cc1 [pentamidine]
inhibition of protein tyrosine phosphatase 1B (PTP1B) [10]: effective inhibitor
inhibition of the oncogenic phosphatases of regenerating liver (PRL) [11]: potent inhibitor
inhibition of the activity of endo-exonuclease (endo-exonuclease): inhibit
